We go through 1 compound from paper PMC4268426 (Contraception, 2014).

SMILES strings stand for the structures. “Also recorded” adds a separate entry of the source. Read-outs that look alike come from different tables or passages of the source.

The conditions of data set [1]: human, in vivo.
The conditions of data set [2]: pharmacokinetics reported as unaffected; cited from earlier work.
Data set [3] can be described thus: clinical. The conditions noted are these: female, human, in vivo, po.

For `C#C[C@]1(O)CC[C@H]2[C@@H]3CCC4=CC(=O)CC[C@@H]4[C@H]3CC[C@@]21C` [norethindrone], in data set [1] (female), the “increase in AUC0-24” value is reported as 50% and the “increase in AUC0-∞” value was 35%. The Cmax in data set [1] (female, po, 0.35 mg) is listed as 2.09 (1.49-3.06) ng/mL. Further, the CL/F in data set [1] (po) is 7.59 (6.22-10.00) L/hr. In data set [1] (po, 0.35 mg), the CL/F is reported as 10.35 (8.55-12.38) L/hr. Further, in data set [2], the “decrease in AUC with obesity (trend)” value is reported as ~ 20% and the “decrease in Cmax with obesity (trend)” value is on record as ~ 20%. Also, in data set [3], the Tmax – broadly, the time from dosing to the highest level – stood at 1.32 h and the Vd/F (in general, the apparent distribution volume after extravascular dosing) is 313 L. Besides, in data set [3] (0.35 mg), the AUC(0-inf) – broadly, the area under the concentration-time curve extrapolated to infinity – worked out at 33.8 ng·h/mL; the AUC(0-t) – broadly, exposure summed from dosing to a finite time, without extrapolation to infinity – is 16.7 ng·h/mL; the Tmax was 1.86 h; the Vd/F came to 564 L. In addition, the adverse events result (either group (control and treatment)) is “no reports of adverse events”. In addition, the concentration at 24 h (female, human, in vivo, po, 0.35 mg) amounted to 0.27 ng/mL. For the same compound, the change in half-life result (treatment group compared to control group) is reported as “unaltered; also recorded: no alteration; also recorded: no change”.
